Source: patent US12636379B2, “Microbubble-chemotherapeutic agent complex for sonodynamic therapy” (UNIVERSITY OF ULSTER, priority 2015, dated 2026)

Tests used:
[1] = system: MIA PaCa-2 cells; assay: Combined antimetabolite/sonodynamic therapy with free agents, MTT assay; conditions: 3 μM RB and/or 50 μM 5FU, 3 h; US 30 sec, 1 MHz; MTT 24 h; n=6
Procedure: The cells were incubated with either 3 μM RB and 50 μM 5FU (or both) for 3 h as these represent sub-lethal doses and enabled synergy to be identified if evident. Ultrasound exposure was 30 sec, 3 W/cm^2, 1 MHz, 50% duty cycle; pulse repetition frequency of […]. Cell viability was determined 24 h following treatment using a MTT assay.
Human primary pancreatic adenocarcinoma cell lines MIA PaCa-2 were maintained in Dulbecco's Modified Eagle's Medium and supplemented with 10% (v/v) foetal bovine serum in a humidified 5% CO2 atmosphere at 37° C. The cells were plated into the wells of a 96-well plate at a concentration of 4×10^3 cells per well and incubated for 21 h at 37° C. in a humidified 5% CO2 atmosphere. The medium was then removed and wells treated with either Rose Bengal, ([…]), 5-Fluorouracil (50 μM) or a combination of both RB (3 μM) and 5-FU (50 μM) for 3 h. The drug solutions were then removed, fresh media added and selected wells treated with ultrasound delivered using a Sonidel SP100 sonoporator (30 sec, frequency=1 MHz, ultrasound power density=3.0 Wcm^−2, duty cycle=50% with pulse repetition frequency=100 Hz). The cells were then incubated for 24 h before cell viability was determined using a MTT assay.

[2] = system: BxPc-3 tumours; assay: In vivo cytotoxicity: intratumoural treatment of ectopic xenograft tumours, tumour volume; design: species or system mice; conditions: 9 days after single intratumoural treatment; 440 μM gemcitabine or 5-FU alone; mix (90.8 μM RB, 440 μM 5FU) +US
Description: FIG. 8 is a plot of (a) % change in tumour volume and (b) average body weight for mice treated with (i) no treatment (open diamonds) (ii) ultrasound only (filled diamonds) (iii) gemcitabine (open triangles) (iv) O2MB-RB/O2MB-5FU mix-US (open circles) (v) O2MB-RB+US (filled squares) (vi) O2MB-RB/O2MB-5FU mix+US (filled circles). Not shown for ease of illustration are treatments with 5-FU alone, O2MB-RB-US, O2MB-5FU+US, O2MB-5FU-US. The RB, 5-FU and gemcitabine concentrations were kept constant in each case at 0.184 mg/kg (90.8 μM), 0.115 mg/kg (440 μM) and 0.264 mg/kg (440 μM) respectively. Ultrasound treatment was delivered for 30 sec at frequency of 1 MHz, an ultrasound power density of 3.0 Wcm^−2 and a duty cycle of 50%, pulse frequency=100 Hz. […]
BxPc-3 cells were maintained in RPMI-1640 medium supplemented with 10% foetal calf serum as described above. […] Once the tumours had reached an average volume of 218 mm^3, calculated from the geometric mean diameter using the equation tumour volume=4πR^3/3, animals were randomly distributed into 10 groups (n=4). […] After treatment, animals were allowed to recover from anaesthesia and tumour volume and body weight were recorded daily for nine days. The % increase in tumour volume was calculated employing the pre-treatment measurements for each group.

[3] = system: Bcl2; conditions: MIA PaCa-2 pancreatic cancer xenograft model; cited from earlier work
[4] = Singlet oxygen production (SOSG intensity) on 780 nm excitation; assay type: physicochemical; conditions: excited at 780 nm
Description: Increased SOSG intensity is indicative of singlet oxygen production.

[5] = system: BxPC-3 cells; assay: In vitro cytotoxicity with 780 nm irradiation; assay type: cell-based; conditions: exposed to 780 nm irradiation
[6] = system: HeLa cervical cancer cell line; assay: In vitro cytotoxicity with 780 nm excitation; assay type: cell-based; conditions: excited at 780 nm
[7] = system: ectopic BxPC-3 pancreatic tumors; assay: Tumour localisation after tail vein administration; assay type: in vivo, mice; conditions: 18 hours following tail vein administration
[8] = Fluorescence emission spectra compared with Cardio Green; assay type: physicochemical
Description: The new compounds clearly show similar absorption profiles to Cardio Green. […] This is attributed to increased ISC due to the additional iodine atoms.

[9] = system: Mia Paca cells; assay: In vitro cytotoxicity with 780 nm irradiation; assay type: cell-based; conditions: exposed to 780 nm irradiation
[10] = system: ectopic BxPC-3 tumours; assay: Systemic (IP) gemcitabine therapy of ectopic tumours, tumour volume; assay type: in vivo, mice; conditions: 120 mg/kg IP on days 0, 3 and 8
Procedure: FIG. 9 is a plot of % change in tumour volume for mice treated with IP gemcitabine (120 mg/kg on days 0, 3 and 8) (filled squares) or vehicle only (filled diamonds). Error bars represent+the standard error where n=4.
In order to compare the effectiveness of the combined SDT/5-FU therapy against systemic gemcitabine therapy, we treated mice bearing ectopic BxPC-3 tumours with gemcitabine (120 mg/kg) administered by intraperitoneal (IP) injection on days 0, 3 and 8. Tumour volume was measured daily as before and compared to untreated animal controls.

| SMILES | reduction in cell viability with ultrasound relative to the same treatment without ultrasound [1] | tumour growth over original starting volume [2] | singlet oxygen production [4] | cytotoxicity compared with cardio green [5] | toxicity compared with Cardio Green [6] | fluorescence emission in comparison to cardio green [8] | cytotoxicity compared with cardio green [9] | further results |
| --- | --- | --- | --- | --- | --- | --- | --- | --- |
| O=C1OC2(c3cc(I)c(O)c(I)c3Oc3c2cc(I)c(O)c3I)c2c(Cl)c(Cl)c(Cl)c(Cl)c21 [RB, Rose Bengal] | 11.1% | – | – | – | – | – | – | – |
| O=c1[nH]cc(F)c(=O)[nH]1 [Compound 5-FU, 5-fluorouracil] | 5.9% | 123.3% | – | – | – | – | – | – |
| CN1CCN(CCCNc2cc3c4c(c(NCCCN5CCN(C)CC5)cc5c4c2C(=O)N(CCCN2CCOCC2)C5=O)C(=O)N(CCCN2CCOCC2)C3=O)CC1 [MM41] | – | – | – | – | – | – | – | reduction of Bcl2 levels at the protein level [3]: 40% |
| CC1(C)C(/C=C/C2=C(Cl)C(=C/C=C3/N(CCCCS(=O)(=O)O)c4ccc(I)cc4C3(C)C)/CCC2)=[N+](CCCCS(=O)(=O)O)c2ccc(I)cc21 [Compound I2-IRCYDYE, 2-((E)-2-((E)-2-chloro-3-((E)-2-(5-iodo-3,3-dimethyl-1-(4-sulfobutyl)indolin-2-ylidene)ethylidene)cyclohex-1-en-1-yl)vinyl)-5-iodo-3,3-dimethyl-1-(4-sulfobutyl)-3H-indol-1-ium] | – | – | more singlet oxygen than Cardio Green | significantly more cytotoxic | more toxic | remains similar to cardiogreen | significantly more cytotoxic | tumour localisation [7]: localises in tumor |
| Nc1ccn([C@@H]2O[C@H](CO)[C@@H](O)C2(F)F)c(=O)n1 [gemcitabine] | – | 125.1% | – | – | – | – | – | tumour volume relative to starting tumour volume [10]: at no point in the therapy did the tumour volume decrease below the starting tumour volume; tumour volume increase ([10]; control group about 100%): 38%; increase in tumour volume at day 6 ([10]; day 6): 20% |
| CC1(C)C(/C=C/C2=C(Cl)C(=C/C=C3/N(CCCCS(=O)(=O)O)c4cc(I)cc(I)c4C3(C)C)/CCC2)=[N+](CCCCS(=O)(=O)O)c2cc(I)cc(I)c21 [Compound I4-IRCYDYE, 2-((E)-2-((E)-2-chloro-3-((E)-2-(4,6-diiodo-3,3-dimethyl-1-(4-sulfobutyl)indolin-2-ylidene)ethylidene)cyclohex-1-en-1-yl)vinyl)-4,6-diiodo-3,3-dimethyl-1-(4-sulfobutyl)-3H-indol-1-ium] | – | – | more singlet oxygen than Cardio Green | significantly more cytotoxic | more toxic | considerably quenched | significantly more cytotoxic | – |
